# From ChEMBL document CHEMBL1154885, “Heat shock protein 90: inhibitors in clinical trials” (J Med Chem, 2010)
# Assays:
# [1] = Cmax in liver of mouse bearing human A2780 cells at 80 mg/kg, ip administered as DMSO/egg phospholipid formulation; assay type: ADME, organism-based; set-up: dose 80 mg/kg, route intraperitoneal
# [2] = Cmax in plasma of mouse bearing human A2780 cells at 80 mg/kg, ip administered as DMSO/egg phospholipid formulation; assay type: ADME, organism-based; set-up: dose 80 mg/kg, route intraperitoneal
# [3] = Half life in human at 220 mg/m2 administered as DMSO/egg phospholipid formulation; assay type: ADME, organism-based; conditions: in vivo
# Liver [4] = experiment: Apparent volume of distribution in liver of mouse bearing human A2780 cells at 80 mg/kg, ip administered as DMSO/egg phospholipid formulation; assay type: ADME, organism-based; set-up: dose 80 mg/kg, route intraperitoneal; conditions: in vivo
# [5] = AUC in liver of mouse bearing human A2780 cells at 80 mg/kg, ip administered as DMSO/egg phospholipid formulation; assay type: ADME, organism-based; set-up: dose 80 mg/kg, route intraperitoneal
# [6] = Cmax in tumor of mouse bearing human A2780 cells at 80 mg/kg, ip administered as DMSO/egg phospholipid formulation; assay type: ADME, organism-based, Neoplasm; set-up: dose 80 mg/kg, route intraperitoneal; conditions: read-out: Cmax_tumor
# [7] = Half life in liver of mouse bearing human A2780 cells at 80 mg/kg, ip administered as DMSO/egg phospholipid formulation; assay type: ADME, organism-based; set-up: dose 80 mg/kg, route intraperitoneal
# [8] = AUC in human at 220 mg/m2 administered as DMSO/egg phospholipid formulation; assay type: ADME, organism-based; conditions: plasma
# Homo sapiens [9] = experiment: Toxicity in human assessed as maximum tolerated dose administered on daily schedule administered as DMSO/egg phospholipid formulation; assay type: organism-based; conditions: in vivo
# [10] = Solubility in water; assay type: physicochemical
# [11] = Apparent volume of distribution in tumor of mouse bearing human A2780 cells at 80 mg/kg, ip administered as DMSO/egg phospholipid formulation; assay type: ADME, organism-based, Neoplasm; set-up: dose 80 mg/kg, route intraperitoneal; conditions: in vivo
# Homo sapiens [12] = experiment: Toxicity in human assessed as maximum tolerated dose administered on 3 days schedule administered as DMSO/egg phospholipid formulation; assay type: organism-based; conditions: in vivo, 72 h
# [13] = Cmax in human at 220 mg/m2 administered as DMSO/egg phospholipid formulation; assay type: ADME, organism-based; conditions: in vivo
# [14] = Clearance in tumor of mouse bearing human A2780 cells at 80 mg/kg, ip administered as DMSO/egg phospholipid formulation; assay type: ADME, organism-based, Neoplasm; set-up: dose 80 mg/kg, route intraperitoneal; conditions: in vivo
# [15] = AUC in plasma of mouse bearing human A2780 cells at 80 mg/kg, ip administered as DMSO/egg phospholipid formulation; assay type: ADME, organism-based; set-up: dose 80 mg/kg, route intraperitoneal
# [16] = Clearance in plasma of mouse bearing human A2780 cells at 80 mg/kg, ip administered as DMSO/egg phospholipid formulation; assay type: ADME, organism-based; set-up: dose 80 mg/kg, route intraperitoneal
# Plasma = experiment: Apparent volume of distribution in plasma of mouse bearing human A2780 cells at 80 mg/kg, ip administered as DMSO/egg phospholipid formulation; assay type: ADME, organism-based; set-up: dose 80 mg/kg, route intraperitoneal; conditions: in vivo
# [17] = AUC in tumor of mouse bearing human A2780 cells at 80 mg/kg, ip administered as DMSO/egg phospholipid formulation; assay type: ADME, organism-based, Neoplasm; set-up: dose 80 mg/kg, route intraperitoneal
# [18] = Clearance in human at 220 mg/m2 administered as DMSO/egg phospholipid formulation; assay type: ADME, organism-based; conditions: in vivo
# Liver [19] = experiment: Clearance in liver of mouse bearing human A2780 cells at 80 mg/kg, ip administered as DMSO/egg phospholipid formulation; assay type: ADME, organism-based; set-up: dose 80 mg/kg, route intraperitoneal; conditions: in vivo
# [20] = Chemical stability assessed as half life; assay type: physicochemical
# NCI-H1650 = experiment: Antitumor activity against human NCI-H1650 cells xenografted in mouse at 100 mg/kg administered daily for 5 days a week; assay type: functional; conditions: NCI-H1650, 120 h, read-out: TGI
# [21] = Half life in plasma of mouse bearing human A2780 cells at 80 mg/kg, ip administered as DMSO/egg phospholipid formulation; assay type: ADME, organism-based; set-up: dose 80 mg/kg, route intraperitoneal
# A2780 = experiment: Antitumor activity against human A2780 cells xenografted in mouse at 80 mg/kg, ip administered as DMSO/egg phospholipid formulation; assay type: functional; conditions: route intraperitoneal, read-out: TGI
# [22] = Half life in tumor of mouse bearing human A2780 cells at 80 mg/kg, ip administered as DMSO/egg phospholipid formulation; assay type: ADME, organism-based, Neoplasm; set-up: dose 80 mg/kg, route intraperitoneal
# [23] = molecular target: Heat shock protein HSP 90-beta (Homo sapiens, UniProt P08238)
# Description: Inhibition of HSP90-mediated client protein HER2 degradation
# Rattus norvegicus = experiment: Toxicity in iv dosed rat assessed as maximum tolerated dose; assay type: organism-based; conditions: in vivo
# Canis familiaris = experiment: Toxicity in iv dosed dog assessed as maximum tolerated dose; assay type: organism-based, Canis lupus familiaris; conditions: in vivo
# Heat shock protein HSP 90-beta, sequence (P08238 whole entry): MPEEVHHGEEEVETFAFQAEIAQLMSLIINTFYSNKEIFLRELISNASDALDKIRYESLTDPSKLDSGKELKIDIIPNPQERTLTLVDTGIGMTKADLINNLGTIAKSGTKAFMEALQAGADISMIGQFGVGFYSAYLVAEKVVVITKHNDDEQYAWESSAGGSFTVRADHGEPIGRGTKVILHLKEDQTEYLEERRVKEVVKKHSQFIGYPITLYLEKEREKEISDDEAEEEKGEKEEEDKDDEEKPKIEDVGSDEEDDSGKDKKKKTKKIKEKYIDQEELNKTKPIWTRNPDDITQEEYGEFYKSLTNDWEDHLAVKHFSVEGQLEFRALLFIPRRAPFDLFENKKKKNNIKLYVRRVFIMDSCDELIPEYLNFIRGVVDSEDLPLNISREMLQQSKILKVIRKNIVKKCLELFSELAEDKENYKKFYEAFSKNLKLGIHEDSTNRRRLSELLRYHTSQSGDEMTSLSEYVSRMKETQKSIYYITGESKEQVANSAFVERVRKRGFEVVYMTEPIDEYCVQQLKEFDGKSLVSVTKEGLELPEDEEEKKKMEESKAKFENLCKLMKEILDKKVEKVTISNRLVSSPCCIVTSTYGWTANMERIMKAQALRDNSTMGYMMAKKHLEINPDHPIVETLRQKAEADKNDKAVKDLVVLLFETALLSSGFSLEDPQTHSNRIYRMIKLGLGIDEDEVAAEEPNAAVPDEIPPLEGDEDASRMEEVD
smiles,measurement,setting,value
C=CCNC1=C2C[C@@H](C)C[C@H](OC)[C@H](O)[C@@H](C)/C=C(\C)[C@H](OC(N)=O)[C@@H](OC)/C=C\C=C(/C)C(=O)NC(=CC1=O)C2=O [TANESPIMYCIN],Cmax,[1],126 µM
same,Cmax,[2],35 µM
same,half-life,[3],3.8 h
same,Vz,Liver [4],0.01 L
same,AUC,[5],263 µM·h
same,Cmax,[6],15 µM
same,half-life,[7],0.86 h
same,AUC,[8],22 µM·h
same,MTD,Homo sapiens [9],56 mg/m2
same,solubility,[10],20 µg/mL
same,Vz,[11],0.34 L
same,MTD,Homo sapiens [12],220 mg/m2
same,Cmax,[13],7.5 µM
same,CL,[14],0.03 L/h
same,AUC,[15],68 µM·h
same,CL/F,[16],0.667 mL/min
same,Vz,Plasma,0.05 L
same,AUC,[17],80 µM·h
same,clearance,[18],700 mL/min
same,CL,Liver [19],0.01 L/h
same,half-life,[20],9.8 h
same,inhibition in vivo at 100 mg/kg,NCI-H1650,30%
same,half-life,[21],0.88 h
same,inhibition in vivo at 80 mg/kg,A2780,70%
same,half-life,[22],7.5 h
CCOP(=O)(CCn1c(Sc2nc3cccc(Cl)c3s2)nc2c(N)ncnc21)OCC,Activity,[23],30 nM
CO[C@H]1/C=C\C=C(/C)C(=O)NC2=CC(=O)C(NCCN(C)C)=C(C[C@@H](C)C[C@H](OC)[C@H](O)[C@@H](C)/C=C(\C)[C@@H]1OC(N)=O)C2=O [ALVESPIMYCIN],MTD,Rattus norvegicus,12 mg/m2
same,half-life,[20],0.433 h
same,MTD,Canis familiaris,8 mg/m2
COc1ccc(I)c(Sc2nc3c(N)ncnc3n2CCNCC(C)(C)C)c1,Activity,[23],30 nM
C#CCCCn1c(Sc2cc3c(cc2Br)OCO3)nc2c(N)ncnc21,Activity,[23],30 nM
